± gives the expanded uncertainty stated by the source.
Assay: molar heat capacity at constant pressure
Settings: 101.33 kPa, Liquid

Question: What does the source list for CCC(C)CO (stereo not given) [2-methyl-1-butanol]?
Answer: molar heat capacity at constant pressure (181.61 K): 151.91 ± 3.6 J/K/mol; molar heat capacity at constant pressure (182.63 K): 152.05 ± 3.6 J/K/mol; molar heat capacity at constant pressure (183.59 K): 152.19 ± 3.6 J/K/mol; molar heat capacity at constant pressure (184.61 K): 152.36 ± 3.6 J/K/mol; molar heat capacity at constant pressure (185.56 K): 152.59 ± 3.6 J/K/mol; molar heat capacity at constant pressure (186.59 K): 152.73 ± 3.6 J/K/mol; molar heat capacity at constant pressure (187.54 K): 152.92 ± 3.6 J/K/mol; molar heat capacity at constant pressure (188.56 K): 153.02 ± 3.6 J/K/mol; molar heat capacity at constant pressure (189.52 K): 153.24 ± 3.7 J/K/mol; molar heat capacity at constant pressure (190.54 K): 153.38 ± 3.7 J/K/mol; molar heat capacity at constant pressure (191.5 K): 153.55 ± 3.7 J/K/mol; molar heat capacity at constant pressure (192.51 K): 153.71 ± 3.7 J/K/mol; molar heat capacity at constant pressure (193.48 K): 153.87 ± 3.7 J/K/mol; molar heat capacity at constant pressure (194.49 K): 154.12 ± 3.7 J/K/mol; molar heat capacity at constant pressure (195.45 K): 154.28 ± 3.7 J/K/mol; molar heat capacity at constant pressure (196.47 K): 154.44 ± 3.7 J/K/mol; molar heat capacity at constant pressure (197.43 K): 154.67 ± 3.7 J/K/mol; molar heat capacity at constant pressure (198.44 K): 154.78 ± 3.7 J/K/mol; molar heat capacity at constant pressure (199.4 K): 155 ± 3.7 J/K/mol; molar heat capacity at constant pressure (200.41 K): 155.18 ± 3.7 J/K/mol; molar heat capacity at constant pressure (201.38 K): 155.44 ± 3.7 J/K/mol; molar heat capacity at constant pressure (202.39 K): 155.73 ± 3.7 J/K/mol; molar heat capacity at constant pressure (203.35 K): 155.9 ± 3.7 J/K/mol; molar heat capacity at constant pressure (204.36 K): 156.25 ± 3.7 J/K/mol; molar heat capacity at constant pressure (205.33 K): 156.37 ± 3.7 J/K/mol; molar heat capacity at constant pressure (206.33 K): 156.66 ± 3.7 J/K/mol; molar heat capacity at constant pressure (207.3 K): 156.95 ± 3.7 J/K/mol; molar heat capacity at constant pressure (208.31 K): 157.5 ± 3.7 J/K/mol; molar heat capacity at constant pressure (209.28 K): 157.69 ± 3.8 J/K/mol; molar heat capacity at constant pressure (210.28 K): 158.2 ± 3.8 J/K/mol; molar heat capacity at constant pressure (211.25 K): 158.49 ± 3.8 J/K/mol; molar heat capacity at constant pressure (212.25 K): 158.88 ± 3.8 J/K/mol; molar heat capacity at constant pressure (213.22 K): 159.25 ± 3.8 J/K/mol; molar heat capacity at constant pressure (214.23 K): 159.75 ± 3.8 J/K/mol; molar heat capacity at constant pressure (215.2 K): 160.09 ± 3.8 J/K/mol; molar heat capacity at constant pressure (216.21 K): 160.71 ± 3.8 J/K/mol; molar heat capacity at constant pressure (217.17 K): 160.99 ± 3.8 J/K/mol; molar heat capacity at constant pressure (218.18 K): 161.49 ± 3.8 J/K/mol; molar heat capacity at constant pressure (219.15 K): 161.82 ± 3.8 J/K/mol; molar heat capacity at constant pressure (220.15 K): 162.39 ± 3.8 J/K/mol; molar heat capacity at constant pressure (221.13 K): 162.7 ± 3.9 J/K/mol; molar heat capacity at constant pressure (222.13 K): 163.26 ± 3.9 J/K/mol; molar heat capacity at constant pressure (223.11 K): 163.61 ± 3.9 J/K/mol; molar heat capacity at constant pressure (224.1 K): 164.01 ± 3.9 J/K/mol; molar heat capacity at constant pressure (225.09 K): 164.48 ± 3.9 J/K/mol; molar heat capacity at constant pressure (226.08 K): 164.73 ± 3.9 J/K/mol; molar heat capacity at constant pressure (227.07 K): 165.18 ± 3.9 J/K/mol; molar heat capacity at constant pressure (228.06 K): 165.39 ± 3.9 J/K/mol; molar heat capacity at constant pressure (229.05 K): 165.83 ± 3.9 J/K/mol; molar heat capacity at constant pressure (230.04 K): 166.09 ± 3.9 J/K/mol; molar heat capacity at constant pressure (231.03 K): 166.52 ± 3.9 J/K/mol; molar heat capacity at constant pressure (232.02 K): 166.86 ± 3.9 J/K/mol; molar heat capacity at constant pressure (233.01 K): 167.29 ± 3.9 J/K/mol; molar heat capacity at constant pressure (233.99 K): 167.66 ± 4 J/K/mol; molar heat capacity at constant pressure (234.99 K): 168.13 ± 4 J/K/mol; molar heat capacity at constant pressure (235.97 K): 168.53 ± 4 J/K/mol; molar heat capacity at constant pressure (236.96 K): 169 ± 4 J/K/mol; molar heat capacity at constant pressure (237.94 K): 169.41 ± 4 J/K/mol; molar heat capacity at constant pressure (238.94 K): 169.88 ± 4 J/K/mol; molar heat capacity at constant pressure (239.92 K): 170.34 ± 4 J/K/mol; molar heat capacity at constant pressure (240.92 K): 170.8 ± 4 J/K/mol; molar heat capacity at constant pressure (241.89 K): 171.24 ± 4 J/K/mol; molar heat capacity at constant pressure (242.89 K): 171.69 ± 4 J/K/mol; molar heat capacity at constant pressure (243.86 K): 172.18 ± 4 J/K/mol; molar heat capacity at constant pressure (244.85 K): 172.64 ± 4 J/K/mol; molar heat capacity at constant pressure (245.82 K): 173.22 ± 4.1 J/K/mol; molar heat capacity at constant pressure (246.81 K): 173.63 ± 4.1 J/K/mol; molar heat capacity at constant pressure (247.77 K): 174.23 ± 4.1 J/K/mol; molar heat capacity at constant pressure (248.76 K): 174.73 ± 4.1 J/K/mol; molar heat capacity at constant pressure (249.72 K): 175.28 ± 4.1 J/K/mol; molar heat capacity at constant pressure (250.7 K): 175.88 ± 4.1 J/K/mol; molar heat capacity at constant pressure (251.66 K): 176.43 ± 4.1 J/K/mol; molar heat capacity at constant pressure (252.64 K): 177.14 ± 4.1 J/K/mol; molar heat capacity at constant pressure (253.59 K): 177.16 ± 4.1 J/K/mol; molar heat capacity at constant pressure (254.57 K): 177.34 ± 4.1 J/K/mol; molar heat capacity at constant pressure (255.52 K): 177.97 ± 4.2 J/K/mol; molar heat capacity at constant pressure (256.5 K): 178.62 ± 4.2 J/K/mol; molar heat capacity at constant pressure (257.44 K): 179.24 ± 4.2 J/K/mol; molar heat capacity at constant pressure (258.43 K): 179.85 ± 4.2 J/K/mol; molar heat capacity at constant pressure (259.36 K): 180.45 ± 4.2 J/K/mol; molar heat capacity at constant pressure (260.34 K): 181.06 ± 4.2 J/K/mol; molar heat capacity at constant pressure (261.27 K): 181.7 ± 4.2 J/K/mol; molar heat capacity at constant pressure (262.25 K): 182.25 ± 4.2 J/K/mol; molar heat capacity at constant pressure (263.18 K): 182.89 ± 4.2 J/K/mol; molar heat capacity at constant pressure (264.15 K): 183.6 ± 4.3 J/K/mol; molar heat capacity at constant pressure (265.08 K): 184.25 ± 4.3 J/K/mol; molar heat capacity at constant pressure (266.04 K): 184.88 ± 4.3 J/K/mol; molar heat capacity at constant pressure (266.97 K): 185.71 ± 4.3 J/K/mol; molar heat capacity at constant pressure (267.93 K): 186.53 ± 4.3 J/K/mol; molar heat capacity at constant pressure (268.85 K): 187.04 ± 4.3 J/K/mol; molar heat capacity at constant pressure (269.81 K): 187.76 ± 4.3 J/K/mol; molar heat capacity at constant pressure (270.72 K): 188.25 ± 4.4 J/K/mol; molar heat capacity at constant pressure (271.68 K): 189.05 ± 4.4 J/K/mol; molar heat capacity at constant pressure (272.59 K): 189.75 ± 4.4 J/K/mol; molar heat capacity at constant pressure (273.55 K): 190.39 ± 4.4 J/K/mol; molar heat capacity at constant pressure (274.46 K): 191.2 ± 4.4 J/K/mol; molar heat capacity at constant pressure (275.41 K): 191.82 ± 4.4 J/K/mol; molar heat capacity at constant pressure (276.31 K): 192.56 ± 4.5 J/K/mol; molar heat capacity at constant pressure (277.26 K): 193.3 ± 4.5 J/K/mol; molar heat capacity at constant pressure (278.16 K): 193.91 ± 4.5 J/K/mol; molar heat capacity at constant pressure (279.11 K): 194.8 ± 4.5 J/K/mol; molar heat capacity at constant pressure (280 K): 195.48 ± 4.5 J/K/mol; molar heat capacity at constant pressure (280.94 K): 196.42 ± 4.5 J/K/mol; molar heat capacity at constant pressure (281.83 K): 197.02 ± 4.5 J/K/mol; molar heat capacity at constant pressure (282.77 K): 197.86 ± 4.5 J/K/mol; molar heat capacity at constant pressure (283.66 K): 198.58 ± 4.6 J/K/mol; molar heat capacity at constant pressure (284.6 K): 199.41 ± 4.6 J/K/mol; molar heat capacity at constant pressure (285.47 K): 200.28 ± 4.6 J/K/mol; molar heat capacity at constant pressure (286.41 K): 201.04 ± 4.6 J/K/mol; molar heat capacity at constant pressure (287.29 K): 201.86 ± 4.6 J/K/mol; molar heat capacity at constant pressure (288.22 K): 202.76 ± 4.7 J/K/mol; molar heat capacity at constant pressure (289.09 K): 203.46 ± 4.7 J/K/mol; molar heat capacity at constant pressure (290.02 K): 204.47 ± 4.7 J/K/mol; molar heat capacity at constant pressure (290.89 K): 205.13 ± 4.7 J/K/mol; molar heat capacity at constant pressure (291.81 K): 206.07 ± 4.7 J/K/mol; molar heat capacity at constant pressure (292.67 K): 206.55 ± 4.7 J/K/mol; molar heat capacity at constant pressure (293.6 K): 207.65 ± 4.8 J/K/mol; molar heat capacity at constant pressure (294.46 K): 208.23 ± 4.8 J/K/mol; molar heat capacity at constant pressure (295.38 K): 209.45 ± 4.8 J/K/mol; molar heat capacity at constant pressure (296.23 K): 210.26 ± 4.8 J/K/mol; molar heat capacity at constant pressure (297.15 K): 211.14 ± 4.8 J/K/mol; molar heat capacity at constant pressure (298 K): 211.98 ± 4.8 J/K/mol; molar heat capacity at constant pressure (298.92 K): 212.94 ± 4.9 J/K/mol; molar heat capacity at constant pressure (299.76 K): 213.73 ± 4.9 J/K/mol; molar heat capacity at constant pressure (300.68 K): 214.69 ± 4.9 J/K/mol

Source: the NIST ThermoML archive (doi:10.1021/je060411g)
